pEC50: −log10 of the molar value. “Also recorded” adds a separate entry of the source.
Columns and labels:
5-HT2C (h) = biological target: T1, 5-HT2C (h) (Homo sapiens, UniProt P28335); assay: 5-HT2C (h) agonist effect, IP1 HTRF functional assay; assay type: cell-based; conditions: for agonist efficacy at 5-HT2C, in words: EMAX relative to 5-HT
T1 construct: expressed in transfected cells; host or cells: HEK-293 cells
T1 sequence (P28335 33-458): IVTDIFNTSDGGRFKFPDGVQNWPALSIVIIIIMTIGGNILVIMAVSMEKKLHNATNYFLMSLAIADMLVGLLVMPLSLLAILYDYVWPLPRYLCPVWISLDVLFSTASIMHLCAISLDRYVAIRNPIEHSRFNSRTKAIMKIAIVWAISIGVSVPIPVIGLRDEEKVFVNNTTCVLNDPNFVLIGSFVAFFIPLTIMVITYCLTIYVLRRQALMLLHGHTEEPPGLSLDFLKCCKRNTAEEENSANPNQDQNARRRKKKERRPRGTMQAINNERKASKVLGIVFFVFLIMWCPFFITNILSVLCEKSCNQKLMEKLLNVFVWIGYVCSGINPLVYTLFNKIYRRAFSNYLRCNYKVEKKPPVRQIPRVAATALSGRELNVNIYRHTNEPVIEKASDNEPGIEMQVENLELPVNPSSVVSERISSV

5-HT2B (h) = biological target: T2, 5-HT2B (h) (Homo sapiens, UniProt P41595); assay: 5-HT2B (h) agonist effect, IP1 HTRF functional assay; assay type: cell-based; conditions: for agonist efficacy at 5-HT2B, in words: EMAX relative to 5-HT
T2 construct: expressed in transfected cells; host or cells: CHO cells

MAO-B = biological target: T3, MAO-B (Homo sapiens, UniProt P27338); assay: human MAO-B in vitro metabolism; assay type: in vitro ADME; conditions: human MAO-B enzyme (Corning), test compound 1 μM, read-out: MAO-B t1/2
T3 construct: purchased Corning 456284
T3 sequence (P27338 1-520): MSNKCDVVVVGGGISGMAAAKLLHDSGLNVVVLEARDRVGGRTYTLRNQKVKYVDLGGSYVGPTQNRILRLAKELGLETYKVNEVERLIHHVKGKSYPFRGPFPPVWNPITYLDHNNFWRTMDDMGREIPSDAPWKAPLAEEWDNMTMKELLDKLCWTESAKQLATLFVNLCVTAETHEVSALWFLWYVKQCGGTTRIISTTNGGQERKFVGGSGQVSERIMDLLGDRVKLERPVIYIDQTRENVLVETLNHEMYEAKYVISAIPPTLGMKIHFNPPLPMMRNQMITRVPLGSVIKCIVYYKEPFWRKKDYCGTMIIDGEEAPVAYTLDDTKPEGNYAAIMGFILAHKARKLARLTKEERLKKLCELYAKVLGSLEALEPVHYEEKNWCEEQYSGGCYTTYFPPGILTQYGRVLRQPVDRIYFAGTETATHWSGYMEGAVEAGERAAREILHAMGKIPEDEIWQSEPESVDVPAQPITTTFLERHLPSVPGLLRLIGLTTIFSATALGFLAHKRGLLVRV
Protocol: In a different series of reactions using human MAO-A and MAO-B, a 10 mM stock solution of the test compound was prepared in DMSO. From this stock solution, an intermediate stock solution of 1 mM was prepared by diluting the compound in DMSO and from this intermediate stock solution, a working solution of 0.30 mM was prepared by diluting the compound in ACN:Water (50:50) as cocktail of 2 compounds (30 μL each compound in 40 μL diluent for 100 μL). Following this, a master mix of 0.1 M potassium phosphate buffer and test compound mixture i.e., the non-deuterated and the deuterated analog, were prepared to achieve final drug concentration of 1 μM (0.2% DMSO) for the required number of reactions. The aforementioned master mix was pre-incubated at 37° C. for 5 min. To this master mix, MAO-A (final protein conc. 0.1 mg/mL; Corning Cat #456283; Lot #1173003) or MAO-B (final protein conc. 0.1 mg/mL; Corning Cat #456284; Lot #0318001) was added to initiate the reaction. The samples were then incubated at 37° C. for the desired time points. At each time point (0, 5, 15, 30, 45, 60), 40 μL of the samples were withdrawn and reactions were stopped using 200 μL chilled ACN containing 0.1% formic acid and internal standard Carbamazepine (10 ng/mL). The samples were centrifuged, and the supernatant was analyzed by LC-MS/MS. The percent compound remaining at each time point was calculated with respect to that of the 0 min sample. The data were then analyzed to calculate half-life and intrinsic clearance (CLint). Blank samples were prepared using DMSO (without the test compound).

5-HT transporter (h) = biological target: T4, 5-HT transporter (h) (Homo sapiens, UniProt P31645); assay: 5-HT transporter (h) binding, [3H]imipramine; conditions: for selectivity for binding SERT over DAT and NET, in words: affinity screen at 10 μM
T4 construct: expressed in transfected cells; host or cells: CHO cells
T4 sequence (P31645 whole entry): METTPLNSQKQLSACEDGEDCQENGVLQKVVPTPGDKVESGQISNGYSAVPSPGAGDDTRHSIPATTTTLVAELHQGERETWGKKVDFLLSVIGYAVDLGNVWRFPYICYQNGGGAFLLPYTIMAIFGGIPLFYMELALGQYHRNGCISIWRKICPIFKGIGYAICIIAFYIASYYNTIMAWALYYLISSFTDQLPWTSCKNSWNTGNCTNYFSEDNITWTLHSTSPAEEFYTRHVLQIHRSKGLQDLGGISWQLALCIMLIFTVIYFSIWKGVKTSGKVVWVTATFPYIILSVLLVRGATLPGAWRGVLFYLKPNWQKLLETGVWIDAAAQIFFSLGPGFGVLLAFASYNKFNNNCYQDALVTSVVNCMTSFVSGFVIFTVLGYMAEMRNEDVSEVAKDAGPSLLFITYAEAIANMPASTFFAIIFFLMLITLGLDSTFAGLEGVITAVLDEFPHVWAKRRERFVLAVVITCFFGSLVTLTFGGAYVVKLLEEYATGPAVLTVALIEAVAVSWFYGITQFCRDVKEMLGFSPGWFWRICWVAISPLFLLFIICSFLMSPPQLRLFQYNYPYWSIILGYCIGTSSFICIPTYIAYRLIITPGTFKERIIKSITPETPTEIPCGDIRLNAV

T2 sequence (P41595 whole entry): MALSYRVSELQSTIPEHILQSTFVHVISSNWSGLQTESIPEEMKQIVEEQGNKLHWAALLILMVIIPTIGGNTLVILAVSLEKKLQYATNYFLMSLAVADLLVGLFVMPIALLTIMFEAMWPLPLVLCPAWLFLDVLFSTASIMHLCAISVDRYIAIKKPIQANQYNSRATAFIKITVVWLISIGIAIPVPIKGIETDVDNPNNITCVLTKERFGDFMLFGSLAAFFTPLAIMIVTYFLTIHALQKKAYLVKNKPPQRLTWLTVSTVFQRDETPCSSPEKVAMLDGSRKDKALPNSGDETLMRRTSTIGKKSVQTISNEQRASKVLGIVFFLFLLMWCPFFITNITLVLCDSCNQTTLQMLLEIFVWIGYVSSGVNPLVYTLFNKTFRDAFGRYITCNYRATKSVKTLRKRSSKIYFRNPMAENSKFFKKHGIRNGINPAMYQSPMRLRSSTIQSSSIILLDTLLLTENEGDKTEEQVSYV

Structure (SMILES): NCCc1ccc2c(c1)OCS2 [II-14, 2-(benzo[d][1,3]oxathiol-6-yl)ethan-1-amine]
- pEC50 (5-HT2C (h)): > 6.12
- Emax at 3 µM (5-HT2C (h); at 3 μM, relative to 5-HT, read-out: Function 5-HT2C EMAX): 107%
- Function 5-HT2C (Gq-IP1, efficacy relative to 5-HT), agonist type (5-HT2C (h); tested at 1, 3, 10, 100 μM): Full agonist -
- agonist efficacy at 5-HT2C, in words (5-HT2C (h); tested at 1, 3, 10, 100 μM): nearly full or full agonist; also recorded: full agonists
- pEC50 (5-HT2B (h)): > 6.12
- Emax at 10 µM (5-HT2B (h); at 10 μM, relative to 5-HT, read-out: Function 5-HT2B EMAX): 100%
- Function 5-HT2B (Gq-IP1, efficacy relative to 5-HT), agonist type (5-HT2B (h); tested at 1, 3, 10, 100 μM): Full agonist -
- agonist efficacy at 5-HT2B, in words (5-HT2B (h); tested at 1, 3, 10, 100 μM): nearly full or full agonist; also recorded: full agonists
- half-life at 1 µM (MAO-B): < 0.0833 h
- selectivity for binding SERT over DAT and NET, in words (5-HT transporter (h)): substantial selectivity for binding SERT over DAT and NET
- Binding SERT (antagonist radioligand), % competition (5-HT transporter (h); at 10 μM): 54.7% competition

Structure (SMILES): CC(N)Cc1ccc2c(c1)OCS2 (stereo not drawn) [II-16, 1-(benzo[d][1,3]oxathiol-6-yl)propan-2-amine]
- agonist efficacy at 5-HT2C, in words (5-HT2C (h); tested at 1, 3, 10, 100 μM): nearly full or full agonist; also recorded: full agonists
- agonist efficacy at 5-HT2B, in words (5-HT2B (h); tested at 1, 3, 10, 100 μM): nearly full or full agonist; also recorded: full agonists
- half-life at 1 µM (MAO-B): 14.3 h
- selectivity for binding SERT over DAT and NET, in words (5-HT transporter (h)): substantial selectivity for binding SERT over DAT and NET

Reference: patent US20250145566A1, “PHENETHYLAMINE DERIVATIVES, COMPOSITIONS, AND METHODS OF USE” (Cybin IRL Limited, priority 2022, published 2025)
